The nature of data set [1]: Stability of the active agent in culture medium (HPLC/GC quantification). Conditions: for halving time in culture medium: culture medium of ex. 10 (RPMI-1640, 10% FCS); for amount still present at the end of the test: culture medium of ex. 10, 72 h. It counts as physicochemical. As to the method:
As far as resveratrols are concerned, they can be obtained with two alternative techniques, HPLC or GC. For both techniques quantification is carried out with the internal standard method. The compound we have found to be optimal is trans4-hydroxy-stilbene, commercially available.
For HPLC the reference method with reverse-phase column can be applied, with detection at 310 nm for trans isomers and at 282 for cis isomer (Mattivi F. Solid phase extraction of trans-resveratrol from wines for HPLC analysis. Zeftschrift für Lebensmittel-Untersuchung und Forschung, 1993, 196, 522-525). The instrumental conditions are the same as those described above for viniferine. The coefficient of molar extinction of both glucosides is almost the same as the one of the corresponding aglycones, so that they can be determined as such after carrying out a correction for molecular weights (Mattivi et al. Isolation, characterization, and evolution in red wine vinification of resveratrol monomers, J. Agric. Food Chem., 1995, 43, 7, 1820-1823).
If a preparation for aqueous or hydroalcoholic matrixes is necessary, the injection should be preceded by a pre-purification step on reverse-phase cartridges according to Mattivi F. Solid phase extraction of trans-resveratrol from wines for HPLC analysis. Zeitschrift für Lebensmittel-Untersuchung und Forschung, 1993, 196, 522-525. In addition to what is contained in the aforesaid document, it has been verified that the method is suitable for all monomer stilbenes, both free and glucosides, and that the eluted fraction of ethyl acetate can be dried under a mild flow of nitrogen, in case it is necessary to carry out the exchange in another solvent and/or to further reduce the limits of quantification.
Said techniques can be used for instance to control the stability of the active agent in culture mediums, and therefore to support in vitro experimental models which are going to be described in the following examples. For instance, for the culture means described in ex.
During the experiments a series of cell lines originating from different types of tumors has been used. All cell lines have been grown and kept in a RPMI-1640 medium added with 10% fetal calf serum (FCS) and 1% penicillin-streptomycin.

The test system of data set [2] is M14 cells (malignant melanoma). The experiment in a line: Cellular cycle analysis of M14 cells by flow cytometry. Type of data set: cell-based. Conditions: for induction of cell accumulation in stage G1/S: 72 h, lowest dose (2.5 mcg/ml). As to the method:
The cells have been resuspended in a concentration of 1×10^6/ml and incubated for different periods of time and with various doses of each substance. At the end of the incubation period the cells have been fixed in acetone/methanol 1:4, treated with 100 KU/ml of RNase and marked with propydium iodide (50 mcg/ml). The various stages of the cellular cycle have then been analyzed by means of flow cytometry with a cytometer FACscan using a suitable statistic program. […] Indeed, after only 24 h of cell incubation with C-Res and starting from a dose of 1.25 mcg/ml, a significant block of the cellular cycle on S/G2M level can be observed, with the consequent increase of the percentage of cells in S stage. Said block remains, at higher doses, constant for the following hours.

The test system of data set [3] is HT-29 cells (colorectal adenocarcinoma). Nature of the data set: Cell mortality of HT-29 cells. It counts as cell-based. The following applies: all doses (5-40 mcg/ml). As to the method:
The cells placed on a microplate in a concentration of 1×10^5/ml have been incubated with various doses of each substance and for different periods of time. At the end of the treatment cell mortality has been evaluated by a cellular count in trypan blue and/or by flow cytometry using a cytometer FACscan (Becton-Dickinson), determining the vitality of unfixed cells which have been marked with propydium iodide (PI). […] For all doses the peak of activity is detected after 48 hours of incubation.

Data set [4] concerns PAR-MEL cells (malignant melanoma resisting to chemotherapeutic treatments). Nature of the data set: Cell replication of PAR-MEL cells. It counts as cell-based. As to the method: (§1) During the experiments a series of cell lines originating from different types of tumors has been used. All cell lines have been grown and kept in a RPMI-1640 medium added with 10% fetal calf serum (FCS) and 1% penicillin-streptomycin. The substances according to the invention have been dissolved in dimethyl-sulfoxide (DMSO) at an initial concentration of 100 mM and added to the cell cultures in the concentrations indicated. DMSO alone has been added to control cultures. The cells placed on a microplate in a concentration of 1×10^5/ml have been incubated with various doses of each substance and for different periods of time. At the end of the treatment cell replication has been evaluated by a cellular count carried out using a Coulter Counter.

For data set [5], the system named is HT-29 cells (colorectal adenocarcinoma). The experiment in a line: Apoptosis of HT-29 cells by flow cytofluorometry (PI DNA content). Type of data set: cell-based. Conditions: 5 mcg/ml, all times of incubation (24, 48, 72 h). The protocol: The cells have been resuspended in a concentration of 1×10^6/ml and incubated for different periods of time and with various doses of each substance. At the end of the incubation period the cells have been fixed in acetone/methanol 1:4, treated with 100 KU/ml of RNase and marked with propydium iodide (50 mcg/ml). The cells have then been analyzed by means of flow cytofluorometry using a cytometer FACscan. […] For all other doses an increase of the effect related to the time of incubation can be observed.

Data set [6] shares this test system. Nature of the data set: Cellular cycle analysis of HT-29 cells by flow cytometry. Type of data set: cell-based. The following applies: only after 48 h incubation. As to the method:
The cells have been resuspended in a concentration of 1×10^6/ml and incubated for different periods of time and with various doses of each substance. At the end of the incubation period the cells have been fixed in acetone/methanol 1:4, treated with 100 KU/ml of RNase and marked with propydium iodide (50 mcg/ml). The various stages of the cellular cycle have then been analyzed by means of flow cytometry with a cytometer FACscan using a suitable statistic program. For these cells the effects on the cellular cycle (FIG. 12) are evident only after 48 h of incubation starting from a dose of 10 mcg/ml and consist in a block of the cellular cycle on G1-S/G2M level.

Data set [7] concerns PAR-MEL cells (malignant melanoma resisting to chemotherapeutic treatments). Nature of the data set: Cell mortality of PAR-MEL cells. It counts as cell-based. The following applies: 40 mcg/ml. As to the method: The cells placed on a microplate in a concentration of 1×10^5/ml have been incubated with various doses of each substance and for different periods of time. At the end of the treatment cell mortality has been evaluated by a cellular count in trypan blue and/or by flow cytometry using a cytometer FACscan (Becton-Dickinson), determining the vitality of unfixed cells which have been marked with propydium iodide (PI). […] Only for the dose of 40 mcg/ml the plateau is reached after only 24 h of incubation.

For data set [8], the system named is M14 cells (malignant melanoma). The experiment in a line: Cell replication of M14 cells (Coulter Counter count). Conditions: for IC50: Homo sapiens, 72 h incubation, read-out: concentration inhibiting 50% of cell replication (CI50). Type of data set: cell-based. The protocol:
as §1, with “Counter. Cells belonging to the M14 tumor line (malignant melanoma) have been incubated for various periods of time with 1.25, 2.5, 5, 10, 20, 40 and 80 mcg/ml of cis-resveratrol (C-Res), or DMSO alone as far as controls are concerned.” for “Counter.”

For data set [9], the system named is PAR-MEL cells (malignant melanoma resisting to chemotherapeutic treatments). Nature of the data set: Cellular cycle analysis of PAR-MEL cells by flow cytometry. The following applies: after 24 h incubation. Type of data set: cell-based. The protocol: The cells have been resuspended in a concentration of 1×10^6/ml and incubated for different periods of time and with various doses of each substance. At the end of the incubation period the cells have been fixed in acetone/methanol 1:4, treated with 100 KU/ml of RNase and marked with propydium iodide (50 mcg/ml). The various stages of the cellular cycle have then been analyzed by means of flow cytometry with a cytometer FACscan using a suitable statistic program. As far as the effects on the cellular cycle (FIG. 8) are concerned, after only 24 h of incubation of PAR-MEL cells with C-Res and starting from a dose of 5 mcg/ml, a significant block of the cellular cycle on G1-S/G2M level can be observed, with a consequent increase in the percentage of cells in S stage and at higher doses in G1 stage. Said block remains constant for the following hours.

For data set [10], the system named is M14 cells (malignant melanoma). Nature of the data set: Apoptosis of M14 cells by flow cytofluorometry (PI DNA content). It counts as cell-based. As to the method:
The cells have been resuspended in a concentration of 1×10^6/ml and incubated for different periods of time and with various doses of each substance. At the end of the incubation period the cells have been fixed in acetone/methanol 1:4, treated with 100 KU/ml of RNase and marked with propydium iodide (50 mcg/ml). The cells have then been analyzed by means of flow cytofluorometry using a cytometer FACscan. […] Said effect is indeed particularly significant starting from a dose of 20 mcg/ml and the peak of activity can be observed after 48 h. An activity having a similar course is performed by C-Res on cell mortality (FIG. 3), even though for said parameter the percentages of cells reacting to the action of the drug are extremely higher.

Data set [11] concerns HT-29 cells (colorectal adenocarcinoma). The experiment in a line: Cell growth of HT-29 cells. It counts as cell-based. The following applies: until 72 hours. As to the method: as §1
Data set [12] has as its system PAR-MEL cells (malignant melanoma resisting to chemotherapeutic treatments). Nature of the data set: Apoptosis of PAR-MEL cells by flow cytofluorometry (PI DNA content). Type of data set: cell-based. Conditions: 40 mcg/ml, 72 h incubation. The protocol:
The cells have been resuspended in a concentration of 1×10^6/ml and incubated for different periods of time and with various doses of each substance. At the end of the incubation period the cells have been fixed in acetone/methanol 1:4, treated with 100 KU/ml of RNase and marked with propydium iodide (50 mcg/ml). The cells have then been analyzed by means of flow cytofluorometry using a cytometer FACscan.

≈ marks a conversion by molar mass, not a printed value.

`Oc1ccc(/C=C\c2cc(O)cc(O)c2)cc1` [C-Res, cis-resveratrol]: in data set [1], the “halving time in culture medium” value worked out at 38 h. Moreover, the “amount still present at the end of the test” value in [1] is given as “about 25%”. In addition, the “induction of cell accumulation in stage G1/S” value in [2] is on record as “could induce cell accumulation in stage G1/S”. For the same molecule, the “dose from which significant block of the cellular cycle on S/G2M level is observed” value in data set [2] (after 24 h incubation) is not below 1.25 µg/mL. For the same molecule, in [3], the “time of peak of activity on cell mortality” value was 48 h. Further, the “effect on cell replication” value in data set [4] (dose 20 and 40 mcg/ml) is on record as “cytotoxic activity”; in data set [4] (dose range 5 and 10 mcg/ml), “significant cytostatic activity”; in data set [8] (dose 40 mcg/ml), “cytotoxic activity”; in [8] (dose range 5-20 mcg/ml) it was “significant cytostatic activity”. For the same molecule, in [5], the “apoptosis (peaks of hypodiploidy)” value is listed as “absence of measurable peaks of hypodiploidy”. For the same molecule, the “dose from which block of the cellular cycle on G1-S/G2M level is evident” value in data set [6] was not below 10 µg/mL. The “time at which plateau of cell mortality is reached” value in [7] stood at 24 h. The IC50 in data set [8] was 2.7 µg/mL (≈ 11.8 µM). Also, the “effect on cell growth” value in data set [8] (all tested doses (1.25-80 mcg/ml)) is on record as “can inhibit cell growth”. Moreover, in data set [9], the “dose from which significant block of the cellular cycle on G1-S/G2M level is observed” value was not below 5 µg/mL. Moreover, the “dose from which increase in apoptotic cells is particularly significant” value in data set [10] is not below 20 µg/mL. Further, the “time of peak of apoptotic activity” value in data set [10] was 48 h. The “inhibition of tumor growth” value in data set [11] (5 and 10 mcg/ml) is “does not induce any significant effect”; in data set [11] (20 mcg/ml), “partial”; in data set [11] (40 mcg/ml), “complete”. Moreover, the cells in apoptosis in data set [12] was 50%.

For `Oc1ccc(/C=C/c2cc(O)cc(O)c2)cc1` [T-Res, trans-resveratrol, reference compound], in [1], the “halving time in culture medium” value amounted to 28 h and the “amount still present at the end of the test” value is listed as “not present as such”. The “induction of cell accumulation in stage G1/S” value in data set [2] is reported as “not”. Moreover, in data set [8], the IC50 amounted to 31.6 µg/mL (≈ 138 µM).

The values above are taken from patent publication US20040052879A1, “Method for the extraction of pharmaceutically active products from spermatophyte plants, products thus obtained and their use in the medical field, in particular as substances with anti-tumoral activity” (priority 2000, published 2004).
